From US8658188B2, “Radio-opaque bioactive glass materials” (Universitat Zurich, priority 2009, dated 2014) come the findings set out here.

This data set can be described thus: Radiopacity assessment against an aluminum step wedge. The class given is physicochemical. Particulars: paste in 0.9 wt % NaCl saline, 60% weight to volume, 1 mm thick, X-ray 65 kV, n=3. The source says: According to Waltimo et al., 2009, J Dent Res, 88, 235-8, the amount of bioactive particles per volume plays an important role in the closed environment of a root canal. To achieve a denser packing of the naturally relatively light nanomaterial (low-density powder with snow-like behaviour), uniaxial pressure of 2.6 MPa was applied for 30 seconds. […] The thus improved filler was compared to classical (flame derived) bioactive particles (no bismuth), to mechanical mixtures of bioactive particles and barium sulphate (50/wt %) and bismuth oxide (80/20 wt %; 50/50 wt %). Calcium hydroxide with or without additional barium sulphate was used as commercially available control material. Bovine dentine slices with a thickness of 1 mm served as control for the clear distinction between material and the surrounding tissue in clinical situations. Prior to use, the corresponding powder was homogeneously mixed with unbuffered physiological saline (0.9 wt % NaCl) to obtain a final weight to volume ratio of 60% (plastic limit, i.e. the maximum amount of powder per liquid to yield a paste-like suspension). A radiograph was taken after preparing the paste and placing it in a polycarbonate mould (10 mm diameter, 1 mm thick). Specimens were placed on a radio-graphic film (Digora, Finland) together with an aluminum step-wedge with a variable thickness from 0.5 mm to 6 mm (0.5 mm and 1 mm increments). […]

Regarding `[Ca+2].[OH-].[OH-]` [calcium hydroxide, Calcium hydroxide], the “aluminum equivalent (radiopacity)” value turned out to be 0.6 mm.
